Measurements taken from ChEMBL document CHEMBL1127733, “Aspartyl alpha-((1-phenyl-3-(trifluoromethyl)-pyrazol-5-yl)oxy)methyl ketones as interleukin-1 beta converting enzyme inhibitors. Significance of the P1 and P3 amido nitrogens for enzyme-peptide inhibitor binding” (J Med Chem, 1994).

Each molecule was assayed against T1, Caspase-1 (Homo sapiens) (UniProt P29466) (assay: Inhibition constant against interleukin-1-beta converting enzyme).
T1 sequence (whole entry): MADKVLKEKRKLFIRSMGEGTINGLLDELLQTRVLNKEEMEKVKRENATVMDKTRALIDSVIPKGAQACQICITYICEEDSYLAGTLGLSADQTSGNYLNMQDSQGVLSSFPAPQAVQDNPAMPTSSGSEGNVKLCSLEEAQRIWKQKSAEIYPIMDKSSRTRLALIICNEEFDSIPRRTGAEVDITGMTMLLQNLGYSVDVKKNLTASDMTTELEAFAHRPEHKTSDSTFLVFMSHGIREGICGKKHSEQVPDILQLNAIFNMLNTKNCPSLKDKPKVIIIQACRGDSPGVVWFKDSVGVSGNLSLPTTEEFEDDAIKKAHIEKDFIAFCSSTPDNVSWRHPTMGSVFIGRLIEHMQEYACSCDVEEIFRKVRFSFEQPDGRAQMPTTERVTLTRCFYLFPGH
In the case of CC(C)[C@H](NC(=O)OCc1ccccc1)C(=O)N[C@@H](CC(=O)O)C(=O)COc1cc(C(F)(F)F)nn1-c1ccccc1, the K obs / 1 is reported as 20000 M⁻¹ s⁻¹.
Molecule CC(C)[C@H](NC(=O)OCc1ccccc1)C(=O)N1CC[C@H]1C(=O)N[C@@H](CC(=O)O)C(=O)COc1cc(C(F)(F)F)nn1-c1ccccc1 has a K obs / 1 of 46200 M⁻¹ s⁻¹.
CC(C)[C@@H](C(=O)N[C@@H](C)C(=O)N[C@@H](CC(=O)O)C(=O)COc1cc(C(F)(F)F)nn1-c1ccccc1)N(C)C(=O)OCc1ccccc1 was tested, and the K obs / 1 was 8600 M⁻¹ s⁻¹.
CC(C)[C@H](NC(=O)OCc1ccccc1)C(=O)N1CCC[C@H]1C(=O)N[C@@H](CC(=O)O)C(=O)COc1cc(C(F)(F)F)nn1-c1ccccc1 gave a K obs / 1 of 116000 M⁻¹ s⁻¹.
Molecule O=C(O)C[C@H](NC(=O)OCc1ccccc1)C(=O)COc1cc(C(F)(F)F)nn1-c1ccccc1 has a K obs / 1 of 11000 M⁻¹ s⁻¹.
For CC(C)[C@H](NC(=O)OCc1ccccc1)C(=O)N(C)[C@@H](C)C(=O)N[C@@H](CC(=O)O)C(=O)COc1cc(C(F)(F)F)nn1-c1ccccc1, the K obs / 1 was 233000 M⁻¹ s⁻¹.
With CC(C)[C@H](NC(=O)OCc1ccccc1)C(=O)N[C@@H](C)C(=O)N(C)[C@@H](CC(=O)O)C(=O)COc1cc(C(F)(F)F)nn1-c1ccccc1 the K obs / 1 was less than 300 M⁻¹ s⁻¹.
